In US20080318909A1, “Use Of Linoleic Compounds Against Heart Failure” (priority 2007, published 2008):

Columns and labels:
[1] = tested on: PPARβ; experiment: PPAR binding in LVs of twenty month old SHHF rats on linoleic acid supplement; assay type: in vivo, rat; conditions: FIG. 13
Description: Peroxisome Proliferator-Activated Receptors: Peroxisome proliferator-activated receptors (PPARs) are a family of nuclear transcription factors comprised of PPARα, PPARγ, and PPARβ (also called PPARδ). […] Alteration in PPAR isoform levels results in CL changes, and it is well established that the natural activator for PPARs are polyunsaturated fatty acids, such as 18:2. […] PPARβ is currently believed to be the most pharmacologically promising of the three isoforms. Linoleic acid supplementation results in an increase in PPARβ binding, FIG. 13.

[2] = tested on: fibroblasts from Barth Syndrome patients; conditions: fibroblasts supplemented with 18:2; cited from earlier work
[3] = tested on: SHHF rats; experiment: Long-term diet study in SHHF rats (fifteen to twenty-one months of age); assay type: in vivo, rat
Experimental: Experiments were performed to determine whether the amount of (18:2)4CL in vivo may be altered with diet and, if so, whether this capability may be used to influence the time course of heart failure in SHHF rats. The two diets studied were a linoleic acid-rich safflower oil diet and a diet supplemented with lard.
Lean male SHHF rats aged eight weeks and fifteen months were used in the studies. […] The progression toward heart failure in SHHF rats shares a wide variety of marked similarities to the progression toward heart failure in humans.
To study the normal timecourse of HF, male SHHF rats were placed on special diets for six months, from fifteen to twenty-one months of age. This timecourse was chosen, because fifteen months is the time when SHHF rats start to progress from hypertension to HF. By twenty-one months most controls should be showing signs of overt HF.

[4] = tested on: TAB rats; experiment: SC-26196 fed in chow to TAB rats with induced heart failure; assay type: in vivo, rat
Description: Δ5 Desaturase and Δ6 Desaturase: Δ6 desaturase mRNA increases with heart failure in SHHF rats (FIG. 11). The Δ5 desaturase and Δ6 desaturase inhibitor SC-26196 (Pfizer) was fed to TAB rats in which heart failure was induced three weeks after TAB. The rats were allowed to reach a pre-failure state for a week and then the drug, SC-26196, was given in the chow for two weeks. […] Use of the Δ5 desaturase and Δ6 desaturase inhibitor, SC-26196, improved the heart function of SHHF rats and caused an increase in linoleic acid and a decrease in arachidonic acid levels in the heart.
Rapid induction of HF was studied using eight week old male SHHF rats maintained on a control (Purina 5001) diet since weaning from their mothers. Rapid HF is induced by transaortic banding (TAB) accompanied by a high salt diet for four weeks (TAB/HS). Rats are used for experiments four weeks following TAB/HS treatment.

Structure (SMILES)	PPARβ binding [1]	amount of (18:2)4CL [2]	left ventricular dimension ([3]; 18:2 supplementation)	systolic function ([3]; 18:2 supplementation)	survivability / survival of SHHF rats ([3]; compared to lard supplemented or standard chow diets, FIG. 7)	arachidonic acid levels in the heart ([4]; SHHF rats)	linoleic acid levels in the heart ([4]; SHHF rats)	survivability of SHHF rats ([4]; given in the chow)	production of arachidonic acid from linoleic acid ([4]; given in the chow for two weeks)	cardiac function (fractional shortening) ([4]; given in the chow for two weeks, FIG. 12A)	level of (18:2)4CL ([4]; given in the chow for two weeks, FIG. 12B)
CCCCC/C=C\C/C=C\CCCCCCCC(=O)O [Linoleic acid, linoleic acid]	increase	increased	Trends for improvement	Trends for improvement	significant increase	–	–	–	–	–	–
N#CC(CCCN1CCN(/N=C/c2cccnc2)CC1)(c1ccccc1)c1ccccc1 [SC-26196]	–	–	–	–	–	decrease	increase	improved	effectively blocked	improved	increased
